Reference: patent publication US20050085463A1 (priority 2003, published 2005)

Legend:
M4 muscarinic receptor = target: T1, M4 muscarinic receptor (Homo sapiens, UniProt P08173); test: R-SAT agonist assay; type: cell-based; design: expressed in transfected cells; host or cells: NIH/3T3; settings: relative to carbachol, No response/nr = no agonist activity up to 10 μM
T1 sequence (P08173 1-479): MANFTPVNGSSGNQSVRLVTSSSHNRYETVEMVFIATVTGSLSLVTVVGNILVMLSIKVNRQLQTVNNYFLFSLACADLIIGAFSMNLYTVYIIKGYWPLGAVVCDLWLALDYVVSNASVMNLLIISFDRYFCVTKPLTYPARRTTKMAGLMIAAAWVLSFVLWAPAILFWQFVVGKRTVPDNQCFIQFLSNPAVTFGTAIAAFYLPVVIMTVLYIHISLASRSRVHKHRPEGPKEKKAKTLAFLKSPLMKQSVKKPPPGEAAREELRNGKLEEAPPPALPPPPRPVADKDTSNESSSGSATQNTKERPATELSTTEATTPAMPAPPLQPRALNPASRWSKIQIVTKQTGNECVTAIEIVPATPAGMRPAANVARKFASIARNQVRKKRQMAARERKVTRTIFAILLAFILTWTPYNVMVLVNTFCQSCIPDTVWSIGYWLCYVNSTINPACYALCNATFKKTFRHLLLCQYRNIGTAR

M5 muscarinic receptor = target: T2, M5 muscarinic receptor (Homo sapiens, UniProt P08912); test: R-SAT agonist assay; type: cell-based; design: expressed in transfected cells; host or cells: NIH/3T3; settings: R-SAT; relative to carbachol; No response/nr = no agonist activity up to 10 μM
T2 sequence (P08912 1-532): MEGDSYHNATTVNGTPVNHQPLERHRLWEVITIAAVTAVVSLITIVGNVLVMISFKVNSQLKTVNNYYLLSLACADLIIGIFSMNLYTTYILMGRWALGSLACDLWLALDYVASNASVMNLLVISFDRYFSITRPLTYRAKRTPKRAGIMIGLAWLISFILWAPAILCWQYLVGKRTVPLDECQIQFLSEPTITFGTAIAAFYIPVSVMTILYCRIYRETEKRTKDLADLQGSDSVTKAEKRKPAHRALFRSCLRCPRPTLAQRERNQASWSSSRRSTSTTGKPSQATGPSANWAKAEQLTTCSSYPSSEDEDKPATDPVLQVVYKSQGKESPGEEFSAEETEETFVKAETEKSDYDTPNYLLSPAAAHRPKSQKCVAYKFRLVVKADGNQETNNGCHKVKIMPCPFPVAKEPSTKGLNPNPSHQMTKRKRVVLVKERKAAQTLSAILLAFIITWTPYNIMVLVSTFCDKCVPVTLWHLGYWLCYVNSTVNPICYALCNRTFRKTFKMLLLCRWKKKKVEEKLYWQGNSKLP

[1] = system: MK-801-induced hyperactivity; test: Reversal of MK-801-induced hyperactivity; type: in vivo, Non-Swiss Albino (NSA) mice
From the text: Clinically effective antipsychotic drugs can block the behavioral effects of non-competitive N-methyl-D-aspartate […], such as MK-801. […]. […]

[2] = system: amphetamine-induced hyperactivity; test: Reversal of amphetamine-induced hyperactivity; type: in vivo, Non-Swiss Albino (NSA) mice; settings: p.o.
M2 muscarinic receptor = target: T3, M2 muscarinic receptor (Homo sapiens, UniProt P08172); test: R-SAT agonist assay; settings: R-SAT; relative to carbachol; No response/nr = no agonist activity up to 10 μM
T3 sequence (P08172 1-466): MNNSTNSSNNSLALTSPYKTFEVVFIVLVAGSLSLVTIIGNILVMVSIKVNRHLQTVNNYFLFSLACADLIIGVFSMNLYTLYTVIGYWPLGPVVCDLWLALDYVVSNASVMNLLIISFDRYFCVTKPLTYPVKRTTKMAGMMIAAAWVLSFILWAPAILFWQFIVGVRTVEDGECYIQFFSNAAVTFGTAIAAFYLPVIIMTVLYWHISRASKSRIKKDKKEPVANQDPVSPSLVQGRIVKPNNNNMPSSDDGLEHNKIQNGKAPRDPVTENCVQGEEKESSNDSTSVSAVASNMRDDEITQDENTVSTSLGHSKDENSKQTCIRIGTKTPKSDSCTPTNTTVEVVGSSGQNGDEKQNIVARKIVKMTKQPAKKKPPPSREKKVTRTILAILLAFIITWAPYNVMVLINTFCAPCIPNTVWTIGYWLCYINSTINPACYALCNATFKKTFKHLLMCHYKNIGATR

[3] = Serum levels during clozapine treatment of schizophrenic patients; type: in vivo, human
Experimental: The analysis was adjusted for baseline level of symptom severity, age, and dose, since dose was not fixed. […] Regarding co-treatment with anticholinergic agents, only two subjects in this sample were treated with benztropine. […] Lastly, ten of the patients in this study were treated with benzodiazepines at the time the levels of clozapine and NDMC were measured.
Patients were classified as treatment resistant or not by standard criteria (Kane et al 1988), and clinical ratings and neuropsychological test scores were obtained by trained raters who were blinded to plasma drug levels.

[4] = system: apomorphine-induced climbing; test: Reversal of apomorphine-induced climbing; settings: s.c.
M1 muscarinic receptor = target: T4, M1 muscarinic receptor (Homo sapiens, UniProt P11229); test: R-SAT agonist assay; type: cell-based; design: expressed in transfected cells; host or cells: NIH/3T3; settings: R-SAT functional agonist screen of 462-compound library; read-out: EC50 at human M1 receptor
T4 sequence (P11229 1-460): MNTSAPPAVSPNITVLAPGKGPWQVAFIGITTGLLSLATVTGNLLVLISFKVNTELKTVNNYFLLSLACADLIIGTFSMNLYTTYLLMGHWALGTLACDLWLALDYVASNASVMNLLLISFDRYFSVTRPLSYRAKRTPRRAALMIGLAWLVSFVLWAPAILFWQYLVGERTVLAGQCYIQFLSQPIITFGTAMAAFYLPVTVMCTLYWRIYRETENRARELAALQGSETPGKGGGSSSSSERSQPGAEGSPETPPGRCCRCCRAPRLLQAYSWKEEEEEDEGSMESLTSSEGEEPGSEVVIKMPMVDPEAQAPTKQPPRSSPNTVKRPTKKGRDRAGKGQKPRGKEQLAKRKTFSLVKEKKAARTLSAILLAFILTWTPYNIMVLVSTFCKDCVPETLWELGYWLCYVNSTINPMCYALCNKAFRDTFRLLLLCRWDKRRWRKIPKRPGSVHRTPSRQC

[5] = clozapine-treated schizophrenics
[6] = clozapine-treated treatment resistant schizophrenics

## C[N+](C)(C)CCOC(N)=O [Carbachol]
M4 muscarinic receptor
  M4 Efficacy: 96 ± 3%
M5 muscarinic receptor
  M5 Efficacy: 105 ± 3%

## CN1CCN(C2=Nc3cc(Cl)ccc3Nc3ccccc32)CC1 [Clozapine, 8-chloro-11-(4-methyl-1-piperazinyl)-5H-dibenzo [b,e][1,4] diazepine, reference compound]
[1]; p.o.
  minimal effective dose, attenuation of MK-801-induced hyperactivity: 3 mg/kg
[1]; s.c.
  minimal effective dose, attenuation of MK-801-induced hyperactivity: 1 mg/kg
[2]
  minimal effective dose, reduction of amphetamine-induced hyperactivity: 3 mg/kg
M2 muscarinic receptor
  M2 Efficacy: 65 ± 8%
[3]; [5]
  Serum level, All Subjects at 6 Months (92): 0.365 ± 0.285 µg/mL
  Serum level, All Subjects at 6 Weeks (86): 0.287 ± 0.19 µg/mL
[3]; [6]
  Serum level, Non-Responders (25): 0.268 ± 0.207 µg/mL
  Serum level, Responders (26): 0.453 ± 0.328 µg/mL
[3]; clozapine-treated treatment resistant schizophrenics, drawn 12 hours after last clozapine dose
  Serum level, All TR Subjects (59): 0.393 ± 0.301 µg/mL
[4]
  minimal effective dose, reduction of apomorphine-induced climbing: 10 mg/kg
M5 muscarinic receptor
  M5 Efficacy: No response and nr

## O=C(CCCN1CCC(O)(c2ccc(Cl)cc2)CC1)c1ccc(F)cc1 [Haloperidol]
[4]
  dose that completely attenuated apomorphine-induced climbing: 0.1 mg/kg

## Cc1ccc(C2(O)CCN(CCCC(=O)c3ccc(F)cc3)CC2)cc1 [Moperone, reference compound]
M1 muscarinic receptor
  EC50: > 1 µM
